According to patent publication US9266939B2, “Compositions comprising natriuretic peptides and methods of use thereof” (Alexion Pharmaceuticals, Inc., priority 2010, dated 2016):
“And” between values parts separate entries of the source, which are not always exact repeats. Equal entries are not always repeated. Peptide text beside a SMILES is read from it.

How the values were obtained:
NPR-B = target: T1, NPR-B (Homo sapiens, UniProt P20594); test: Membrane guanylyl cyclase (cGMP) assay, NPR-B; type: biochemical
T1 sequence (P20594 23-1047): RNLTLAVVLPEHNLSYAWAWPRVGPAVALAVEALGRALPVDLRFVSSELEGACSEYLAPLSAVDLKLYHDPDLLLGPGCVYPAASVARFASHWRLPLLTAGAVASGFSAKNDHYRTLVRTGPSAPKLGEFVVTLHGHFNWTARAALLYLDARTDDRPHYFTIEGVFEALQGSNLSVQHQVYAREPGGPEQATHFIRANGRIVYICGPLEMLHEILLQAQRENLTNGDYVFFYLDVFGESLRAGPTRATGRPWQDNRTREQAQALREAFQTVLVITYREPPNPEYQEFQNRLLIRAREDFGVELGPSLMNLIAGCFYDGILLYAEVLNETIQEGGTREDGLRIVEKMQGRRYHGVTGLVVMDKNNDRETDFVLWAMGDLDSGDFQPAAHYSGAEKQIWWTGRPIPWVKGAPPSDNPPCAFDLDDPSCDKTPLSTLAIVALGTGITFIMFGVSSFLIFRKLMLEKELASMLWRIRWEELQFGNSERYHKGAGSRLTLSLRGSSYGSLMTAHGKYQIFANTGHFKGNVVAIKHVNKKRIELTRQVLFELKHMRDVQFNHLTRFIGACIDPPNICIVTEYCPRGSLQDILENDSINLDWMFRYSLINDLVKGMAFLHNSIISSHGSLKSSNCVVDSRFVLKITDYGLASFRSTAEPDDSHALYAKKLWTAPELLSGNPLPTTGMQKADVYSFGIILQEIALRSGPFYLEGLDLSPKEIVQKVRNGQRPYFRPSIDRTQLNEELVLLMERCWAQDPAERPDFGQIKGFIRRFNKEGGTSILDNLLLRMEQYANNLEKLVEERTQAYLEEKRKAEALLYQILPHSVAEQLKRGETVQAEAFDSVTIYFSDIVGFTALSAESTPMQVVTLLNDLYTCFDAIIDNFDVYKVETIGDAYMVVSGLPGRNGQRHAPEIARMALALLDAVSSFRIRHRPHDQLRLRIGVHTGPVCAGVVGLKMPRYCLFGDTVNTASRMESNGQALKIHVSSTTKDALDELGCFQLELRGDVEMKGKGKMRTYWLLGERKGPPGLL

NPR-A = NPR-A (Homo sapiens, UniProt P16066); type: biochemical
Chain of NPR-A (P16066 33-1061): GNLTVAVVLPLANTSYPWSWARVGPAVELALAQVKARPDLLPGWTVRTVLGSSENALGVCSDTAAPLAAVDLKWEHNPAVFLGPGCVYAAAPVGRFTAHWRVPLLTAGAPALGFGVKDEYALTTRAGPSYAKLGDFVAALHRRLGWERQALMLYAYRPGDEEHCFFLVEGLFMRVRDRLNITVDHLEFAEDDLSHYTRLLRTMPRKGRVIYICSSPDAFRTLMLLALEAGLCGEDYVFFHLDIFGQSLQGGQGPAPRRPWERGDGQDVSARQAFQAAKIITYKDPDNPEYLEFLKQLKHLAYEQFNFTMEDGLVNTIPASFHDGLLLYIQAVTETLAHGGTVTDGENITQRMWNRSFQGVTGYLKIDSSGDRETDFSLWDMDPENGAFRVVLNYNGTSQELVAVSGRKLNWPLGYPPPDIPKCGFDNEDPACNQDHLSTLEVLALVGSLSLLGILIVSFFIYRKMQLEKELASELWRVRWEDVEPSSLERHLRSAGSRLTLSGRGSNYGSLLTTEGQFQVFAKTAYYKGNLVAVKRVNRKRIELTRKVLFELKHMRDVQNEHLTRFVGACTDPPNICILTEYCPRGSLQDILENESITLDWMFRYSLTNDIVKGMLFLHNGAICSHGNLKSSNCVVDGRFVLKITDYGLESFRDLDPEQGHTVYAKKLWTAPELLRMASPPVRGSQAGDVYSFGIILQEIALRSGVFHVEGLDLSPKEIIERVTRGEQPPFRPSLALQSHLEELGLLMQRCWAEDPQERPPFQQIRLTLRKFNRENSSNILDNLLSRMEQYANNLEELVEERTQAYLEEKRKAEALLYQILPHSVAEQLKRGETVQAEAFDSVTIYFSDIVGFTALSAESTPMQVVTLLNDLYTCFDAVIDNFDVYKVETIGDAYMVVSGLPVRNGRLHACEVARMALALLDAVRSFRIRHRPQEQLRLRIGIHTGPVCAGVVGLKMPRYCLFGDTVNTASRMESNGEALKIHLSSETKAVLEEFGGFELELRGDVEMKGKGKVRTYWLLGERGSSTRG

[1] = target: neutral endopeptidase (NEP) (Homo sapiens, UniProt P08473)
Chain of neutral endopeptidase (NEP) (P08473 whole entry): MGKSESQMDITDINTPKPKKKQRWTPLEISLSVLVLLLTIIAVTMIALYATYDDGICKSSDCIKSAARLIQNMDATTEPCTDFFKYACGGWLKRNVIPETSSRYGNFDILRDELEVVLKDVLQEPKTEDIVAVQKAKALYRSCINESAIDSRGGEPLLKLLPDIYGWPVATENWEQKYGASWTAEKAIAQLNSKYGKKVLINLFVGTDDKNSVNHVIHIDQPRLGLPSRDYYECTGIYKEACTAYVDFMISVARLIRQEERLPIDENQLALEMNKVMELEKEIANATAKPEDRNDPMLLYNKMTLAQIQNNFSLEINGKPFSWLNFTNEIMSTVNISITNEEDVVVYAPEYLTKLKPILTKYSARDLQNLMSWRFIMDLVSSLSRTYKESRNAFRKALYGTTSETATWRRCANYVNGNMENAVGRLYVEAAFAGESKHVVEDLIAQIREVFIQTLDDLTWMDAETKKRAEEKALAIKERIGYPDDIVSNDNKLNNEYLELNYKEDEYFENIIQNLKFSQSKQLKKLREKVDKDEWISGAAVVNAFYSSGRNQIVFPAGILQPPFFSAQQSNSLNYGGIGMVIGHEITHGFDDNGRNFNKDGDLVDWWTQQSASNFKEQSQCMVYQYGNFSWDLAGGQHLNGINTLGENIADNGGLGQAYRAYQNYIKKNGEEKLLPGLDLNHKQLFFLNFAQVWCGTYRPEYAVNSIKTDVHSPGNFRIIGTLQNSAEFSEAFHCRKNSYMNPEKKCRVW

**Q.** With CC[C@H](C)[C@@H]1NC(=O)[C@H](CCCNC(=N)N)NC(=O)[C@H](CC(=O)O)NC(=O)[C@H](CC(C)C)NC(=O)[C@H](CCCCN)NC(=O)[C@H](CC(C)C)NC(=O)CNC(=O)[C@H](Cc2ccccc2)NC(=O)[C@@H](NC(=O)CNC(=O)[C@H](CCCCN)NC(=O)[C@H](CO)NC(=O)[C@H](CC(C)C)NC(=O)CN)CSSC[C@@H](C(=O)N2CCC[C@H]2C(=O)N[C@@H](CO)C(=O)N[C@@H](CO)C(=O)N[C@@H](CCCNC(=N)N)C(=O)N[C@@H](C)C(=O)N2CCC[C@H]2C(=O)N[C@@H](CCCNC(=N)N)C(=O)N2CCC[C@H]2C(=O)N[C@@H](CC(N)=O)C(=O)N[C@@H](C)C(=O)N2CCC[C@H]2C(=O)N[C@@H](CO)C(=O)N[C@H](C(=O)N[C@@H](CO)C(=O)N[C@@H](C)C(=O)O)[C@@H](C)O)NC(=O)CNC(=O)[C@H](CC(C)C)NC(=O)CNC(=O)[C@H](CO)NC(=O)[C@H](CCSC)NC(=O)[C@H](CO)NC(=O)CNC1=O [CDNP-SRA] (HELM PEPTIDE1{G.L.S.K.G.C.F.G.L.K.L.D.R.I.G.S.M.S.G.L.G.C.P.S.S.R.A.P.R.P.N.A.P.S.T.S.A}$PEPTIDE1,PEPTIDE1,6:R3-22:R3$$$V2.0) as the molecule, how does the “% efficacy versus CDNP on NPR-B” value (NPR-B) read?
**A.** 118%

**Q.** And the “Approximate fold gain in selectivity versus CDNP” value (NPR-B)?
**A.** 1.2 fold and 1.23 fold

**Q.** And the “Approximate fold selectivity NPR-B versus NPR-A” value (NPR-B)?
**A.** 3.59 fold

**Q.** And the “NPR-B selective efficacy gain” value (NPR-B)?
**A.** 82%

**Q.** What about the “% efficacy versus CDNP on NPR-A” value (NPR-A) of the same molecule?
**A.** 36%

**Q.** What about the “% loss in efficacy versus CDNP” value (NPR-A) of the same molecule?
**A.** 82%

**Q.** And the “sensitivity to NEP degradation” value [1]?
**A.** comparable NEP sensitivity
